Read-outs that look alike come from different tables or passages of the source.
Key:
Test in all cases: hOR assay (GloSensor cAMP luciferase), dose-response
Type in all cases: cell-based
[1] = biological target: T1, OR10C1 (Homo sapiens, UniProt Q96KK4); settings: OR10C1, with or without the TAR-Tat system
T1 construct: Lucy tag (N); expressed in transfected cells; host or cells: Flp-In T-REx-293 cells stably expressing RTP1S, Gαolf and Ric8-b
T1 sequence (Q96KK4 1-312): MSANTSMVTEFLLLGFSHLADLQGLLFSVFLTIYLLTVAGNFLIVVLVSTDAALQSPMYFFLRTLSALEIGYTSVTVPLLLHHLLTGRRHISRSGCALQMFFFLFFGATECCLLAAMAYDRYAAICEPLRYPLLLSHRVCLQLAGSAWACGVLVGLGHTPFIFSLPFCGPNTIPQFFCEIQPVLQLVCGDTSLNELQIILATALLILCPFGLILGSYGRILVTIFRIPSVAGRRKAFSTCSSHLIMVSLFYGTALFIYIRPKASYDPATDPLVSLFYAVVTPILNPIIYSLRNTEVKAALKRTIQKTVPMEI
Procedure: (§1) Flp-In T-REx-293 cells stably expressing accessory proteins (RTP1S, Gαolf, and Ric8-b) were established using the Flp-In T-REx system. Accessory proteins-expressing cells were maintained in high-glucose Dulbecco’s modified Eagle medium (Sigma-Aldrich) containing 10% fetal bovine serum (Biowest) and 1% antibiotic–antimycotic (Nacalai tesque) at 37°C with 5% CO2.
(§2) The GloSensor™ Technology (Promega) was used for the luciferase assay of the hOR response. As the negative control, cells that were transfected by the pBApo-CMV neo vector and pHEK293 Ultra Expression Vector I were used as mock cells. hOR/pHEK and hOR/pBApo (50 ng/well) were transfected into the accessory proteins-expressing cell line (40000 cells/well) using Lipofectamine 2000 (Thermo Fisher Scientific) (400 nL/well) along with pGlosensor™-22F cAMP biosensor plasmid (Promega) (50 ng/well) in a 96-well plate. At 28 h posttransfection, the cells were washed with an assay buffer (140 mM NaCl, 10 mM HEPES, 5 mM KCl, 1 mM CaCl2・2H2O, 10 mM D-glucose, pH 7.5) and replaced with the assay buffer (50 μL/well) containing 2% GloSensor cAMP substrate and preincubated for 1 h at 25°C. Then, the assay buffer was added (130 μL/well). After 10 min of equilibration, the luminescence was measured (L0). Odorants diluted in 10% DMSO/assay buffer were treated (20 μL/well). After 9 min, the luminescence was measured (L9min). First, all the L9min values were subtracted by the L0 value (ΔL) and divided by the L0 value (ΔL/L0). The concentration range of the odorants was different for each odorant, but the minimum was 0.01 μM and the maximum was 3 mM. For all hORs, luciferase assays with hOR/pBApo and hOR/pHEK were conducted in the same 96-well plate each time, and luminescence was normalized to a maximum value of 100. Dose–response curve images were graphed using the Graph Pad Prism 9 software (Graph Pad Software).

[2] = biological target: T2, OR2Z1 (Homo sapiens, UniProt Q8NG97); settings: OR2Z1, with or without the TAR-Tat system
T2 construct: Lucy tag (N); FLAG (N); Rho tag (N); expressed in transfected cells; host or cells: Flp-In T-REx-293 cells stably expressing RTP1S, Gαolf and Ric8-b
T2 sequence (Q8NG97 1-314): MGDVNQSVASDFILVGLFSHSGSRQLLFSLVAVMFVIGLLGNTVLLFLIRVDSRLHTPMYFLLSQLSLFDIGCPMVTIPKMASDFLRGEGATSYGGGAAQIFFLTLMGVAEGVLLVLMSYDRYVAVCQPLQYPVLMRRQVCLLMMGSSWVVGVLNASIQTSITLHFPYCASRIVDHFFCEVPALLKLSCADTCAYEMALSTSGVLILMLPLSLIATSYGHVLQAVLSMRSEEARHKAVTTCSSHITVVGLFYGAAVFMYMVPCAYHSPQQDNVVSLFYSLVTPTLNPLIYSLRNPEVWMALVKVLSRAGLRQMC
Procedure: as §1, §2

[3] = biological target: T3, OR2J3 (Homo sapiens, UniProt O76001); settings: OR2J3, with and without the TAR-Tat system
T3 construct: Lucy tag (N); FLAG (N); Rho tag (N); expressed in transfected cells; host or cells: Flp-In T-REx-293 cells stably expressing RTP1S, Gαolf and Ric8-b
T3 sequence (O76001 1-311): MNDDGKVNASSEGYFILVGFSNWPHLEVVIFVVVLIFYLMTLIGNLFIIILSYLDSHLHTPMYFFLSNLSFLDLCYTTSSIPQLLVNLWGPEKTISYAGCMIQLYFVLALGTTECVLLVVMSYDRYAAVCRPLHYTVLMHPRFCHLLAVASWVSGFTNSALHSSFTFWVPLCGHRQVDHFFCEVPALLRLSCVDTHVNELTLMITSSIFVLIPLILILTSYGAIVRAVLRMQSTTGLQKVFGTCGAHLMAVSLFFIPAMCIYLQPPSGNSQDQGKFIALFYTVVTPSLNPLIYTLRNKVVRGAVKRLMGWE
Procedure: as §1, §2

[4] = biological target: T4, OR2W1 (Homo sapiens, UniProt Q9Y3N9); settings: for EC50: read-out: EC50 of n-hexanal concentration-response relationship
T4 construct: Lucy tag (N); FLAG (N); Rho tag (N); expressed in transfected cells; host or cells: Flp-In T-REx-293 cells stably expressing RTP1S, Gαolf and Ric8-b
T4 sequence (Q9Y3N9 1-320): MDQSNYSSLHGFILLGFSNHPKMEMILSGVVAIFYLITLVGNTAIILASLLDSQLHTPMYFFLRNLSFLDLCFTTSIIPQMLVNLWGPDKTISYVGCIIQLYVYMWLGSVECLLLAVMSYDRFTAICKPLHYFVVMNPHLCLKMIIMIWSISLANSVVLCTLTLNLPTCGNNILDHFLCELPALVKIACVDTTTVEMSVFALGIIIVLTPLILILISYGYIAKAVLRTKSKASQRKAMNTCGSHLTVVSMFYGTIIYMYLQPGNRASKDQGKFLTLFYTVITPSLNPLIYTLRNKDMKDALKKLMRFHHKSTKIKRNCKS
Procedure: as §1, §2

[5] = biological target: T5, OR10H3 (Homo sapiens, UniProt O60404); settings: OR10H3, with or without the TAR-Tat system
T5 construct: Lucy tag (N); expressed in transfected cells; host or cells: Flp-In T-REx-293 cells stably expressing RTP1S, Gαolf and Ric8-b
T5 sequence (O60404 1-316): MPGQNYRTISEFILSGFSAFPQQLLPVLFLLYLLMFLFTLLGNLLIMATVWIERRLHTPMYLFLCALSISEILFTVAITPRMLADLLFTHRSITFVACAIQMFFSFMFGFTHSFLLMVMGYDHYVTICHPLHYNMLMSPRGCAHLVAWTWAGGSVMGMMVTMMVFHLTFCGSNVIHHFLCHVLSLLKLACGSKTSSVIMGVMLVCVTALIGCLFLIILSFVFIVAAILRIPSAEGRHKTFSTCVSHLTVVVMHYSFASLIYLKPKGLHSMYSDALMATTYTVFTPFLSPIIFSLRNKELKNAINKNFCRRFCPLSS
Procedure: as §1, §2

concentration-dependent response to n-hexanal [1]: no concentration-dependent response
concentration-dependent response to n-hexanal [2]: no concentration-dependent response
EC50 ([4]; OR2W1/pBApo (without TAR-Tat system)): 21 µM
EC50 ([4]; OR2W1/pHEK (with TAR-Tat system)): 60 µM
increase of maximum value of dose-response curve with the TAR-Tat system ([4]; OR2W1/pHEK versus OR2W1/pBApo): 2.0 fold
concentration-dependent response to n-hexanal [5]: no concentration-dependent response
SMILES: CCCCCC=O [n-hexanal]
concentration-dependent response to n-hexanal [3]: concentration-dependent responses only with the TAR-Tat system
concentration-dependent response to n-hexanal ([4]; OR2W1, with and without the TAR-Tat system): Concentration-dependent responses were observed

From publication PMC11198769, “Enhancement of transcription efficiency by TAR-Tat system increases the functional expression of human olfactory receptors” (PLOS ONE, 2024)
